Patent publication US20140315933A1, “CHEMICAL COMPOUNDS” (Pfizer Limited, priority 2013, published 2014)
Where a name gives a salt, the structure may show the parent alone.

Each molecule was assayed against T1, URAT-1 transporter (Homo sapiens, UniProt Q96S37) (assay: URAT-1 inhibitor activity: [14C]-uric acid uptake into CHO-URAT1(L)GFP#8 (CHO#8) cells, scintillation proximity).
T1 construct: expressed in transfected cells
Format: cell-based
How it was run: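 Scintillation proximity read-out of 30 nM (final) [14C]-uric acid uptake over three hours at room temperature in chloride-free HEPES buffer pH 7.4. Compounds, 0–10 μM final with 0.25% DMSO, were added 15 minutes before substrate; cells were a clonal CHO line with human URAT1(L)-eGFP, preincubated 1 hour in chloride buffer.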

T1 sequence (Q96S37 with tags, fused parts or gaps): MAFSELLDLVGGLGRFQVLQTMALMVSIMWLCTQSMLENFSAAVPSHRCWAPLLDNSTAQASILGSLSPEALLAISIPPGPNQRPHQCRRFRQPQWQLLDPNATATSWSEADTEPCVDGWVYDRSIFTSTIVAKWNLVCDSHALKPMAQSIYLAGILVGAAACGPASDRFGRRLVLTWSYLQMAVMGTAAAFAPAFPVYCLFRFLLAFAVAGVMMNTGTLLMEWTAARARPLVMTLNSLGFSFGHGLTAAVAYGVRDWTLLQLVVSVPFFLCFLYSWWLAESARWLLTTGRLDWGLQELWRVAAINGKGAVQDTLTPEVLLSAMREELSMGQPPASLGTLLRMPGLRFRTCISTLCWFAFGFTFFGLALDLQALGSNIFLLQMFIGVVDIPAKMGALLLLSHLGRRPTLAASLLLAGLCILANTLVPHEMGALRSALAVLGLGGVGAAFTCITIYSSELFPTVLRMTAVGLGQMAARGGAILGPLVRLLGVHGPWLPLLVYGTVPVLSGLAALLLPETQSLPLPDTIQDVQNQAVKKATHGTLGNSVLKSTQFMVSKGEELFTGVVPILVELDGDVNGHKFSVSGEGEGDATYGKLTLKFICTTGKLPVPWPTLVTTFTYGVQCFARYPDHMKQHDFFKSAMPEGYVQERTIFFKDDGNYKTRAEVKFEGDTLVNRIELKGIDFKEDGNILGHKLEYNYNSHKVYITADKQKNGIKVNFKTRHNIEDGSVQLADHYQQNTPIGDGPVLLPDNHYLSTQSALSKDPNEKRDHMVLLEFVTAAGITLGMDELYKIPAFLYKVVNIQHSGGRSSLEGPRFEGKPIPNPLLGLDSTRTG

N#Cc1cc(S(=O)(=O)Nc2ncc(F)s2)ccc1Oc1ccc(Cl)cc1 [Example 98, 4-(4-chlorophenoxy)-3-cyano-N-(5-fluoro-1,3-thiazol-2-yl)benzenesulfonamide] and N#Cc1cc(S(=O)(=O)Nc2ncc(F)s2)ccc1Oc1cccc(Cl)c1 [Example 110, 4-(3-chlorophenoxy)-3-cyano-N-(5-fluoro-1,3-thiazol-2-yl)benzenesulfonamide] cannot be ordered by IC50: over 1690 nM for the first, over 7540 nM for the second.

Compared with N#Cc1ccc(Oc2ccc(S(=O)(=O)Nc3nccs3)cc2C#N)cc1Cl [Example 1, 4-(3-chloro-4-cyanophenoxy)-3-cyano-N-(1,3-thiazol-2-yl)benzenesulfonamide], Cc1cc(NS(=O)(=O)c2ccc(Oc3ccc(C#N)c(Cl)c3)c(C#N)c2)on1 [Example 59, 4-(3-chloro-4-cyanophenoxy)-3-cyano-N-(3-methyl-1,2-oxazol-5-yl)benzenesulfonamide] is higher in IC50: 58 nM for the first, over 10000 nM for the second.

Going from N#Cc1cc(S(=O)(=O)Nc2nccs2)ccc1Oc1ccccc1CCO [compound 176] to N#Cc1cc(S(=O)(=O)Nc2nccs2)ccc1Oc1ccccc1Cl [compound 181], the IC50 falls from over 6000 nM to 1220 nM. The second is the more potent here.

O=S(=O)(Nc1ncns1)c1cc(F)c(Oc2ccc(F)c(F)c2)cc1F [compound 196] and N#Cc1cc(Oc2cc(F)c(S(=O)(=O)Nc3ncns3)cc2F)ccc1F [compound 213] are within 1.5-fold of each other in IC50: 1580 nM for the first, 2040 nM for the second.

Going from O=S(=O)(Nc1nccs1)c1ccc(Oc2ccc(C(F)(F)F)cc2C(F)(F)F)c(F)c1 [Example 6, 4-[2,4-bis(trifluoromethyl)phenoxy]-3-fluoro-N-(1,3-thiazol-2-yl)benzenesulfonamide] to N#Cc1cc(S(=O)(=O)Nc2nccs2)ccc1Oc1ccc(Cl)cc1OC(F)(F)F [compound 162], the IC50 falls from over 10000 nM to 565 nM. The second is the more potent here.

Compared with COc1ccc(Oc2ccc(S(=O)(=O)Nc3ncns3)cc2C#N)cn1 [Example 20, 3-cyano-4-[(6-methoxypyridin-3-yl)oxy]-N-(1,2,4-thiadiazol-5-yl)benzenesulfonamide], COc1ccc(Oc2ccc(S(=O)(=O)Nc3ncns3)cc2C#N)cc1F [compound 257] is lower in IC50: over 7520 nM for the first, 1200 nM for the second.

Compared with N#Cc1ccc(Oc2ccc(S(=O)(=O)Nc3ncns3)cc2Cl)cc1 [Example 64, 3-chloro-4-(4-cyanophenoxy)-N-(1,2,4-thiadiazol-5-yl)benzenesulfonamide diethylamine salt], Cc1ccc(Oc2ccc(S(=O)(=O)Nc3ncns3)cc2C#N)cc1 [compound 258] is 2.6-fold lower in IC50: 8010 nM for the first, 3120 nM for the second.

Going from CCc1cc(F)ccc1Oc1ccc(S(=O)(=O)Nc2cscn2)cc1I [Example 77, 4-(2-ethyl-4-fluorophenoxy)-3-iodo-N-(1,3-thiazol-4-yl)benzenesulfonamide] to O=S(=O)(Nc1cscn1)c1cc(Cl)c(Oc2ccc(F)cc2I)cc1F [Example 149, 5-chloro-2-fluoro-4-(4-fluoro-2-iodophenoxy)-N-(1,3-thiazol-4-yl)benzenesulfonamide], the IC50 rises from 160 nM to 494 nM (3.1-fold).

Compared with COc1c(F)ccc(Oc2cc(F)c(S(=O)(=O)Nc3nncs3)cc2Cl)c1Cl [compound 329], COc1cc(F)ccc1Oc1cc(F)c(S(=O)(=O)Nc2nncs2)cc1Cl [compound 312] is higher in IC50: 606 nM for the first, over 6450 nM for the second. The first is the more potent here.

Going from CN(C)c1ccc(Oc2ccc(S(=O)(=O)Nc3nccs3)cc2C#N)cn1 [Example 186, 3-cyano-4-{[6-(dimethylamino)pyridin-3-yl]oxy}-N-(1,3-thiazol-2-yl)benzenesulfonamide] to CNc1ccc(Oc2ccc(S(=O)(=O)Nc3nccs3)cc2C#N)cn1 [Example 187, 3-cyano-4-{[6-(methylamino)pyridin-3-yl]oxy}-N-(1,3-thiazol-2-yl)benzenesulfonamide], the IC50 rises from 1080 nM to over 6640 nM. The first is the more potent here.

COc1cc(Cl)ccc1Oc1ccc(S(=O)(=O)Nc2nncs2)c(OC)c1 [Example 80, 4-(4-chloro-2-methoxyphenoxy)-2-methoxy-N-(1,3,4-thiadiazol-2-yl)benzenesulfonamide] and O=S(=O)(Nc1nncs1)c1ccc(Oc2ccc(F)c(F)c2)cc1Cl [Example 249, 2-chloro-4-(3,4-difluorophenoxy)-N-(1,3,4-thiadiazol-2-yl)benzenesulfonamide] cannot be ordered by IC50: over 5780 nM for the first, over 10000 nM for the second.

First: N#Cc1cc(S(=O)(=O)Nc2ncc(F)s2)ccc1Oc1cccc(F)c1F [Example 114, 3-cyano-4-(2,3-difluorophenoxy)-N-(5-fluoro-1,3-thiazol-2-yl)benzenesulfonamide]
Second: N#Cc1cc(S(=O)(=O)Nc2ncc(F)s2)ccc1Oc1ccc(Cl)cc1F [Example 116, 4-(4-chloro-2-fluorophenoxy)-3-cyano-N-(5-fluoro-1,3-thiazol-2-yl)benzenesulfonamide]
The IC50 of the first is lower: 4410 nM for the first, over 5310 nM for the second.

CC(C)(C)c1cccc(Oc2ccc(S(=O)(=O)Nc3ncc(F)s3)cc2C#N)c1 [Example 137, 4-(3-tert-butylphenoxy)-3-cyano-N-(5-fluoro-1,3-thiazol-2-yl)benzenesulfonamide] and N#Cc1cc(S(=O)(=O)Nc2ncc(F)s2)ccc1Oc1ccc(F)c(F)c1 [Example 248, 3-cyano-4-(3,4-difluorophenoxy)-N-(5-fluoro-1,3-thiazol-2-yl)benzenesulfonamide] cannot be ordered by IC50: over 8950 nM for the first, over 1200 nM for the second.

Going from N#Cc1cc(S(=O)(=O)Nc2ncc(Cl)s2)ccc1Oc1ccccc1F [Example 84, N-(5-chloro-1,3-thiazol-2-yl)-3-cyano-4-(2-fluorophenoxy)benzenesulfonamide] to CC(C)c1ccccc1Oc1ccc(S(=O)(=O)Nc2ncc(F)s2)cc1C#N [Example 97, 3-cyano-N-(5-fluoro-1,3-thiazol-2-yl)-4-[2-(propan-2-yl)phenoxy]benzenesulfonamide], the IC50 rises from 681 nM to 1170 nM (1.7-fold).

O=S(=O)(Nc1cscn1)c1cc(F)c(Oc2ccc(F)c(F)c2)cc1F [compound 238] and O=S(=O)(Nc1cscn1)c1cc(Br)c(Oc2ccc(F)c(F)c2)cc1F [compound 234] cannot be ordered by IC50: over 10000 nM for the first, over 10000 nM for the second.

Compared with Cc1c(Oc2ccc(S(=O)(=O)Nc3ncns3)cc2C#N)ccc(F)c1F [compound 288], COc1c(Oc2ccc(S(=O)(=O)Nc3ncns3)cc2C#N)ccc(F)c1C [compound 266] is 3.6-fold higher in IC50: 431 nM for the first, 1570 nM for the second. The first is the more potent here.

Compared with N#Cc1cc(Oc2ccc(S(=O)(=O)Nc3ncns3)cc2F)ccc1F [compound 194], N#Cc1cc(S(=O)(=O)Nc2ncns2)ccc1Oc1ccc(F)c(F)c1 [compound 212] is lower in IC50: over 7150 nM for the first, 782 nM for the second.

First: COc1cc(OC)c(Oc2ccc(S(=O)(=O)Nc3ncc(Cl)s3)cc2C#N)c(OC)c1 [Example 90, N-(5-chloro-1,3-thiazol-2-yl)-3-cyano-4-(2,4,6-trimethoxyphenoxy)benzenesulfonamide]
Second: COc1ncc(Oc2ccc(S(=O)(=O)Nc3nncs3)cc2C#N)cc1Cl [Example 338]
The IC50 of the first is 2.1-fold higher: 1670 nM for the first, 797 nM for the second. The second is the more potent here.

Going from N#Cc1cc(S(=O)(=O)Nc2ncns2)ccc1Oc1cccc(Cl)c1F [Example 48, 4-(3-chloro-2-fluorophenoxy)-3-cyano-N-(1,2,4-thiadiazol-5-yl)benzenesulfonamide] to N#Cc1cc(S(=O)(=O)Nc2ncns2)ccc1Oc1ccc(F)cc1Cl [Example 46, 4-(2-chloro-4-fluorophenoxy)-3-cyano-N-(1,2,4-thiadiazol-5-yl)benzenesulfonamide], the IC50 falls from 1960 nM to 504 nM (3.9-fold).

Compared with N#Cc1cc(S(=O)(=O)Nc2cscn2)ccc1Oc1ccc(F)c(F)c1 [compound 228, 3-cyano-4-(3,4-difluorophenoxy)-N-(1,3-thiazol-4-yl)benzenesulfonamide], N#Cc1cc(S(=O)(=O)Nc2ncns2)ccc1Oc1ccc(F)cc1F [Example 43, 3-cyano-4-(2,4-difluorophenoxy)-N-(1,2,4-thiadiazol-5-yl)benzenesulfonamide] is 7.1-fold higher in IC50: 123 nM for the first, 877 nM for the second. The first is the more potent here.

Going from N#Cc1ccc(OC(F)F)c(Oc2cc(F)c(S(=O)(=O)Nc3ncns3)cc2Cl)c1 [Example 156, 5-chloro-4-[5-cyano-2-(difluoromethoxy)phenoxy]-2-fluoro-N-(1,2,4-thiadiazol-5-yl)benzenesulfonamide diethylamine salt] to N#Cc1cc(S(=O)(=O)Nc2ncns2)ccc1Oc1cc(Cl)ccc1OC(F)F [Example 31, 4-[5-chloro-2-(difluoromethoxy)phenoxy]-3-cyano-N-(1,2,4-thiadiazol-5-yl)benzenesulfonamide], the IC50 falls from 3430 nM to 2220 nM (1.5-fold).

CCc1cc(F)ccc1Oc1ccc(S(=O)(=O)Nc2nccs2)c(F)c1 [Example 72, 4-(2-ethyl-4-fluorophenoxy)-2-fluoro-N-(1,3-thiazol-2-yl)benzenesulfonamide] and CC(C)Oc1ccc(Oc2ccc(S(=O)(=O)Nc3nccs3)cc2C#N)cn1 [Example 192, 3-cyano-4-{[6-(propan-2-yloxy)pyridin-3-yl]oxy}-N-(1,3-thiazol-2-yl)benzenesulfonamide] cannot be ordered by IC50: over 10000 nM for the first, over 10000 nM for the second.

First: O=S(=O)(Nc1ncns1)c1ccc(Oc2cccc(C(F)(F)F)c2F)c(Cl)c1 [Example 65, 3-chloro-4-[2-fluoro-3-(trifluoromethyl)phenoxy]-N-(1,2,4-thiadiazol-5-yl)benzenesulfonamide diethylamine salt]
Second: COc1cc(C(F)(F)F)ccc1Oc1ccc(S(=O)(=O)Nc2ncns2)cc1C#N [Example 25, 3-cyano-4-[2-methoxy-4-(trifluoromethyl)phenoxy]-N-(1,2,4-thiadiazol-5-yl)benzenesulfonamide diethylamine salt]
The IC50 of the first is lower: 1490 nM for the first, over 10000 nM for the second. The first is the more potent here.

Going from Cc1cccc(Oc2ccc(S(=O)(=O)Nc3ncns3)cc2C#N)c1 [compound 260] to Cc1cncc(Oc2ccc(S(=O)(=O)Nc3ncns3)cc2C#N)c1 [compound 252, trifluoroacetic acid salt], the IC50 falls from 1960 nM to 1110 nM (1.8-fold). The second is the more potent here.

Compared with CCOc1cc(C)ccc1Oc1cc(F)c(S(=O)(=O)Nc2nncs2)cc1Cl [compound 331], COc1cc(Cl)cc(Cl)c1Oc1cc(F)c(S(=O)(=O)Nc2nncs2)cc1Cl [Example 157, 5-chloro-4-(2,4-dichloro-6-methoxyphenoxy)-2-fluoro-N-(1,3,4-thiadiazol-2-yl)benzenesulfonamide diethylamine salt] is lower in IC50: over 6720 nM for the first, 2880 nM for the second.

CC(C)Oc1ccccc1Oc1ccc(S(=O)(=O)Nc2ncns2)cc1C#N [compound 278] and CCOc1cc(C)ccc1Oc1ccc(S(=O)(=O)Nc2ncns2)cc1C#N [compound 259] are within 1.5-fold of each other in IC50: 2740 nM for the first, 3130 nM for the second.
